{"source": "patent US20150191445A1", "about": "“ACYL-HYDRAZONE AND OXADIAZOLE COMPOUNDS, PHARMACEUTICAL COMPOSITIONS CONTAINING THE SAME AND USES THEREOF” (Universidade Federal de Santa Catarina, priority 2011, published 2015)", "tested_on": "HL-60 cells", "experiment": "DNA microarray gene expression and GSEA analysis", "type": "cell-based, human", "settings": "125 nM, 6 h", "experimental": "The cells were incubated for 12 hours in fresh medium before the experiments. Two million cells from the leukemic cell line HL60, in triplicate, were treated with a 125 nM dose of compound 07 or with dimethylsulfoxide (DMSO) vehicle for 6 h, in DMEM supplemented with 10% fetal bovine serum. At the end of this period, the cells were recovered by brief centrifugation and lysed in a solution of guanidine of the RNAspin Mini RNA Isolation kit (GE).\nTotal RNA was extracted from cells using the RNAspin Mini RNA Isolation kit (GE) following the manufacturer's instructions. A total of 100 ng of RNA was used to prepare biotinylated complementary RNA probes (Bio-cRNA), by cDNA synthesis followed by amplification by in vitro transcription, using the GeneChip WT cDNA Synthesis and Amplification kit (Affymetrix) according to the recommendations of the manufacturer. […]\nthe results of the microarray hybridization were read in the Affymetrix Gene Chip Scanner 3000-7G. Data were analyzed in the Bioconductor platform. […] The list of differentially expressed genes were analyzed using the CMap (http://www.broad.mit.edu/cmap/) for identification of possible action mechanisms related to the action of known compounds (Lamb, J., Crawford E. D. The Connectivity Map: Using Gene-Expression Signatures to Connect Small Molecules, Genes and Disease Science 2006, 313, 1929-1935). […]"}
{"smiles": "COc1cc(C(=O)NN=Cc2cccc3ccccc23)cc(OC)c1OC", "note": "[Compound 07]", "values": [{"measurement": "expression of tubulin and tubulin-specific chaperone gene set (GSEA)", "value": "drastic reduction of the expression of a set of genes of tubulin and tubulin-specific chaperones"}]}
